Assay results as given in patent US8957087B2, “Heterocyclic substituted acardite derivate and application thereof” (Jiangsu Provincial Institute of Materia Medica Co., Ltd., priority 2009, dated 2015).
Where two headings read alike, the source gives them in different places.

Key:
Raf-1(truncated) = experiment: Raf-1 inhibitor screening by chemoluminescence method; format: biochemical; details: Final concentration 1 x 1.0*10^−5 mol/ml
Excerpt: 1. Inhibitory activity of the compound of the present invention on raf kinase
Raf-1 inhibitor screening by chemoluminescence method
Westernblot electrophoresis apparatus Rotaryshaker
Raf-1(truncated), Magnesium/ATP Cocktail, MEK1 unactive

[1] = test system: human lung cancer cell strain A549; experiment: MTT assay, inhibition of growth of human lung cancer cell strain A549; format: cell-based
Experimental: 4. Using 3-(4,5-dimethylthiazol-2-yl)-2,5-diphenyl tetrazolium bromide assay (MTT) to detect the inhibition effects on the growth of human lung cancer cell strain A549
[Test materials] MTT working solution, F12 medium containing 10% FBS, continuous injectors
(§1) [Tested compound] Compounds 1-38
(§2) [Positive control medicine] Sorafenib, compounds A′, B′, C′ with no substituent or only amino formyl in A ring
The inhibition rate is calculated as follows:
(§3) Relative OD value of conrol well=OD value of control well−OD value of blank well
(§4) Relative OD value of drug well=OD value of drug well−OD value of blank well

[2] = test system: human high-metastic lung cancer cell 95D; experiment: Inhibition of human high-metastic lung cancer cell 95D migration (Boyden Chamber Transwell); format: cell-based; details: Final concentration 1 x 1.0*10^(−5) mol/L
Experimental: 5 Inhibition effects of compounds on human high-metastic lung cancer cell 95D migration
[Test materials] Boyden Chamber Transwell chamber (with pore size of 8 μm), human high-metastic lung cancer cell 95D cell strain, 1640 medium containing 10% FBS, 1640 medium containing no serum
as §1, §2
(§5) The inhibition rate is calculated as follows: […]

lung cancer cell A549 = experiment: Effects on the adhesive ability of lung cancer cell A549; format: cell-based, human; details: Final concentration 1 x 1.0*10^(−5) mol/L
Experimental: 6. Effects of tested compounds on the adhesive ability of lung cancer cell A549
[Test materials] gelatin, CCK8, poly-lysine (PLL), A549 cell stains, 1640 medium containing 10% FBS
(§6) [Tested compound] Compounds 1-38 to be tested
as §2, §5
Dosing dosing cells without cell group (gelatin adhesive OD/PLL adhesion OD)−Dosing cell group (gelatin adhesive OD/PLL adhesion OD value)
Dosing dosing cells without cell group (gelatin adhesive OD/PLL adhesion OD value)

[3] = test system: human umbilical vein endothelial cell HUVEC; experiment: Growth of human umbilical vein endothelial cell HUVEC by CCK8 method; format: cell-based; details: Final concentration 1 x 1.0*10^(−5) mol/L
Excerpt: 7. Effects of tested compounds on the growth of human umbilical vein endothelial cell HUVEC cell by CCK8 method
[Test materials] CCK8, human umbilical vein endothelial cell HUVEC cell, 1640 medium containing 10% FBS
as §6, §2, §3, §4

[4] = test system: human umbilical vein endothelial cell HUVEC; experiment: Lumen formation ability of HUVEC (Matrigel method); format: cell-based; details: Final concentration 1 x 1.0*10^(−5) mol/L
Excerpt: 8. Inhibition effects of compounds on the lumen formation ability of human umbilical vein endothelial cell HUVEC
[Experimental principles] The human umbilical vein endothelial cells have ability of spontaneously forming blood lumen on Matrigel, which can be used to simulate the process of angiogenesis in vivo. We used Matrigel method to investigate the effects of the compound on the lumen formation ability of human umbilical vein endothelial cell HUVEC.
[Test materials] HUVEC (taking generation 3 to 5 cells for experiments after obtained from primary separation and cultured at 37 under the conditions of 5% CO2), Matrigel, cell culture medium M199.
as §1, §2, §5

[5] = test system: human lung cancer A549 transplantation tumor; format: in vivo; details: BALB/cA nude mice; 60 mg/kg, 6 times every week for 3 weeks; Sorafenib oral 60 mg/kg
Experimental: 9. Tumor inhibition rate of tested compounds on human lung cancer A549 cell transplantation model in nude mice
(§7) [Test animals] female BALB/cA nude mice, 35-40 days old, with weight of 18-22g. There were 12 mice in the negative conrol group and 6 mice in the treatment group.
(§8) The dosage of the compound was 60 mg/kg, 6 times every week for 3 weeks. […] Equal amount of normal saline was administrated in the negative control group. Observe for one week after administration.

[6] = test system: human liver cancer cell bel-7402 transplantation tumor; format: in vivo; details: BALB/cA nude mice; 60 mg/kg, 6 times every week for 3 weeks; Sorafenib oral 60 mg/kg
Experimental: 10. Tumor inhibition rate of tested compounds on human liver cancer cell bel-7402 transplantation tumor model in nude mice
as §7, §8

[7] = test system: renal carcinoma cell line GCR-1 transplanted tumor; format: in vivo, BALB/cA nude mice; details: BALB/cA nude mice; 60 mg/kg, 6 times every week for 3 weeks; Sorafenib oral 60 mg/kg
Experimental: 11. Tumor inhibition rate of medicines on renal carcinoma cell line GCR-1 transplanted tumor model in nude mice
as §7
[Test method] […] The dosage of the medicine was 60 mg/kg, 6 times every week for 3 weeks. […] Equal amount of normal saline was administrated in the negative control group. Observe for one week after administration.

mice S180 sarcoma = experiment: Experimental therapeutic action on S180 sarcoma mice; details: mice S180 sarcoma, 60 mg/kg orally for 9 days
Experimental: Experimental therapeutic action of the compound in the present invention on S180 sarcoma mice
18-25 g female ICR mice and well grown 7-11 day old mice sarcoma S180 tumor seeds were selected, and the seeds were inoculated into the subcutaneous at the right axillary. After inoculated 24 hours, these mice were randomly divided into cages and orally administrated 60 mg/kg for 9 days. On 10 day, the animals were killed and weighed, and the tumor weights were weighed to calculate average tumor weight in each group, followed by calculating the tumor inhibition rate according to the following formula and T test.

[8] = test system: Human colon cancer HT-29 transplantable tumor; experiment: Human colon cancer HT-29 transplantable tumor in nude mice; details: HT-29 in nude mice, 60 mg/kg ig 9 times
[9] = Final concentration 1 x 1.0*10^(−5) mol/L

Structure (SMILES)	Inhibition rate % on raf kinase (Raf-1(truncated)) [%]	Inhibition rate, growth of human lung cancer cell A549 [1, 9] [%]	Inhibition rate, 95D cell strain migration [2] [%]	Inhibition rate, adhesion ability of human lung cancer cell A549 (lung cancer cell A549) [%]	Inhibition rate, growth of HUVEC cell [3] [%]	Inhibition rate, lumen formation ability of HUVEC [4] [%]	Relative tumor reproduction rate T/C (%) on human lung cancer A549 transplantation tumor in nude mice [5] [%]	Relative tumor reproduction rate T/C (%) on human liver cancer cell bel-7402 transplantation tumor model in nude mice [6] [%]	Relative tumor reproduction rate T/C (%) on human renal carcinoma GCR-1 cell transplanted tumor model in nude mice [7] [%]	Tumor growth inhibition rate (%) (mice S180 sarcoma)	Relative tumor reproduction rate T/C (%) [8] [%]	Inhibition rate, growth of human lung cancer cell A549 [1] [%]
CNC(=O)c1nc(Oc2ccc(NC(=O)Nc3ccc(Br)c(C(F)(F)F)c3)cc2)c2ccc(F)cc2n1 [Compound 6, N-(4-bromo-3-(trifluoromethyl)phenyl)-N′-(4-(2-(N-methylaminoformoxyl)-4-(7 fluoroquinazolinyl)oxy)phenyl)urea]	80.1	92.50	93.71	93.59	7.50	90.55	15.9	19.5	12.5	51.2	39.58	–
CCc1cc(NC(=O)Nc2ccc(Oc3ccnc4cc(F)c(OC)cc34)cc2)ccc1Cl [Compound 31, N-(4-chloro-3-ethylphenyl)-N′-(4-(4-(6-methoxyl-7-fluoro-quinolinyl)oxy)phenyl)urea]	89.4	–	76.18	66.77	26.70	66.77	38.7	33.4	31.4	50.3	50.3	46.78
O=C(Nc1ccc(Oc2ncnc3cc(F)ccc23)cc1)Nc1ccc(Br)c(C(F)(F)F)c1 [Compound 21, N-(4-bromo-3-(trifluoromethyl)phenyl)-N′-(4-(4-(7 fluoroquinazolinyl)oxy)phenyl)urea]	98.9	–	88.76	90.22	11.21	89.47	13.7	16.4	7.8	59.7	38.7	89.21
COc1ccc2nccc(Oc3ccc(NC(=O)Nc4ccc(Br)c(C(F)(F)F)c4)cc3)c2c1 [Compound 18]	34.4	90.71	93.73	93.72	5.71	63.71	12.5	12.7	12.3	35.7	40.2	–
CNC(=O)c1ncc(Oc2ccc(NC(=O)Nc3ccc(F)c(C(F)(F)F)c3)cc2)c2ccc(N)cc12 [Compound 11, N-(4-fluoro-3-(trifluoromethyl)phenyl)-N′-(4-(2-(N-methylaminoformoxyl)-4-(7-amino-isoquinolyl)oxy)phenyl)urea]	11.2	69.20	78.66	59.63	29.20	79.63	43.7	23.7	32.1	54.2	81.2	–
COc1ccc2nccc(Oc3ccc(NC(=O)Nc4ccc(F)c(C(F)(F)F)c4)cc3)c2c1 [Compound 17]	58.2	88.52	90.52	97.50	13.52	67.50	7.3	12.5	11.1	44.2	54.7	–
CNC(=O)c1cc(Oc2ccc(NC(=O)Nc3ccc(F)c(C(F)(F)F)c3)cc2)c(C)[nH]1 [Compound 14, N-(4-fluoro-3-(trifluoromethyl)phenyl)-N′-(4-(2-(N-methylaminoformoxyl)-4-(5-methyl-pyrryl)oxy)phenyl)urea]	41.3	67.25	57.57	67.51	17.25	67.53	32.2	36.1	31.1	18.2	40.1	–
CNC(=O)c1cc(Oc2ccc(NC(=O)Nc3ccc(Cl)c(C(F)(F)F)c3)cc2)c(C)[nH]1 [Compound 13, N-(4-chloro-3-(trifluoromethyl)phenyl)-N′-(4-(2-(N-methylaminoformoxyl)-4-(5-methyl-pyrryl)oxy)phenyl)urea]	55.0	64.23	65.45	63.39	24.23	53.36	38.4	29.8	28.3	21.2	81.2	–
CCCNC(=O)c1cc(Oc2ccc(NC(=O)Nc3ccc(Cl)c(OC)c3)c(C(F)(F)F)c2)c2ccc(C(F)(F)F)cc2n1 [Compound 38]	88.1	–	80.53	75.53	14.56	65.55	36.5	31.5	20.5	59.2	41.2	74.56
